Data as given in patent US4425347A, “Perfluorobicyclo compound emulsion preparation” (priority 1982, dated 1984).

Assay: Distribution of Perfluoro-compound in Organs (gas chromatography)
Type: in vivo, Wister-strain male rats
Details: 4 g/kg, tail vein; for Residual Rate of perfluorobicyclo compound: 3 Months after administration
Procedure: Using Wister-strain male rats weighing 120-130 g, the emulsion prepared in Example 1 was administered into the tail vein [at 4 g/kg as perfluoro-4-methyloctahydroquinolidine], and for a period of 3 months after the administration, the content of said compound in the liver, spleen and fat tissues due to uptake were measured by means of gas chromatography.

With `FC(F)(F)C1(F)N2C(F)(F)C(F)(F)C(F)(F)C(F)(F)C2(F)C(F)(F)C(F)(F)C1(F)F` (centres unmarked) [perfluoro-4-methyloctahydroquinolidine] the “adverse influence on the liver or spleen organ” value (3 months) was “no evidence of adverse influence on the liver or spleen organ”, the “uptake by the reticulo-endothelial organ and disappearance” value (rat) was “taken up in greater amounts by the reticulo-endothelial organ shortly after the administration, but soon disappeared rapidly” and the “Residual Rate of perfluorobicyclo compound” value (Liver) was 0.30%. The “Residual Rate of perfluorobicyclo compound” value (Spleen) was 0.09% and the half-life (in vivo, iv, 4000 mg/kg, rat) was 176 h.
